Experimental data from US6605628B1, “Method of using 5-(arysulfonyl)-, 5-(arylsulfanyl)-and 5-(arylsulfanyl)thiazolidine-2,4-diones for inhibition of farnesyl-protein transferase” (Wyeth Holdings Corporation, priority 2001, dated 2003).

Experiments:
FPTase [1] = biological target: T1, FPTase (Homo sapiens, UniProt P49354+P49356); experiment: in vitro FTase Inhibition Assay, H-Ras used as substrate for farnesylation; assay type: biochemical
Procedure: (§1) Enzyme test procedure: FPTase inhibition in vitro assay was performed according to James, G. L., Brown, M. S., and Goldstein, J. L., Methods in Enzymology, 1995, 255, 38-46; and Garcia, M. A., et al., J. Biol. Chem., 1993, 268, 18415-18420.
(§2) Materials—Purified FPTase (Moomaw, J. F. and Casey, P. J., J. Biol. Chem., 1992, 267, 17438-17443), purified His6-Ras, inhibitor compounds at 10 mg/ml or 10 mM in 100% DMSO, ^3H-FPP (50,000 dpm/pmol) Amersham, TCA/SDS (6%/2%), TCA (6%), Glass fiber filters ([…]), vacuum manifold or 96 well filtration plates.
(§3) Methods—1. Dilute FPTase inhibitors from stock solutions to 2.5× in 2.5% DMSO, 10 mM DTT, 0.5% octyl-B-glucoside. 2. Solution #1 is added to FPTase reaction in a volume of […]. 3. Standard reaction mix, […], contains 50 mM Tris (7.5), 10 mM ZnCl2, 3 mM MgCl2, 20 mM KCl, 5 mM DTT, 0.2% octyl-B-glucoside, 1% DMSO, […] His6-Ras, 10 ng FPTase, and various concentrations of FPTase inhibitors. 4. Incubate for 30-90 min at 25° C. 5. Stop reactions with TCA/SDS (6%/2%), hold at 4° C. for 45-60 min. 6. Filter by manifold or 96 well plate, wash filter 3-5× with TCA (6%). 7. Add scintillant to filters, measure ^3H-FPP incorporation into Ras protein.
(§4) Analysis of Results—Percent inhibition by test compounds is determined by the following:
(§5) (cpm from precipitated Ras with test compounds)−(background cpm)×100=% inhibition.
(§6) (cpm from precipitated Ras without test compounds)−(background cpm)

FPTase [2] = biological target: T1, FPTase; experiment: in vitro FTase Inhibition Assay, K-Ras used as substrate for farnesylation; assay type: biochemical; conditions: Table I
Procedure: as §1, §2, §3, §4, §5, §6

[3] = Table II, read-out: IC50 (wi. H-Ras)

Row | Compound | IC50 (FPTase [1]; Table I, read-out: IC50 H-Ras*) [nM] | IC50 (FPTase [2]) [nM] | IC50 (FPTase [1]; [3]) [nM]
1 | 5-[5-(4-Chloro-2-methylphenyl)pent-4-ynyl]-5-(4-trifluoromethoxybenzenesulfonyl)-thiazolidine-2,4-dione [Example 140] | 150 to 300 | 1000 to 3600 | –
2 | O=C1NC(=O)C(CCCC#Cc2ccc(Cl)cc2)(Sc2ccc(F)cc2)S1 (stereo not drawn) [Example 96, 5-[5-(4-Chlorophenyl)pent-4-ynyl]-5-(4-fluorophenylsulfanyl)-thiazolidine-2,4-dione] | 700 | – | –
3 | COc1ccc(S(=O)(=O)C2(CC#Cc3cccnc3)SC(=O)NC2=O)cc1 (stereo not drawn) [Example 167, 5-(4-Methoxybenzenesulfonyl)-5-(3-pyridin-3-ylprop-2-ynyl)-thiazolidine-2,4-dione] | 1500 | – | –
4 | COc1ccc(S(=O)(=O)C2(CCCC#Cc3ccc(Cl)cc3)SC(=O)N(CCCn3ccnc3)C2=O)cc1 (stereo not drawn) [Example 233, 5-[5-(4-Chlorophenyl)pent-4-ynyl]-3-(3-imidazol-1-yl-propyl)-5-(4-methoxybenzenesulfonyl)-thiazolidine-2,4-dione] | 2900 | – | –
5 | O=C1NC(=O)C(CC#Cc2ccc(Cl)cc2)(S(=O)(=O)c2ccc3ccccc3c2)S1 (stereo not drawn) [Example 239, 5-[3-(4-Chloro-phenyl)-prop-2-ynyl]-5-(napthalene-2-sulfonyl)-thiazolidine-2,4-dione] | – | – | 700
6 | O=C1NC(=O)C(CC#Cc2ccccc2)(S(=O)(=O)c2ccc(Cl)cc2)S1 (stereo not drawn) [Example 242, 5-(4-Chloro-benzenesulfonyl)-5-(3-phenyl-prop-2-ynyl)-thiazolidine-2,4-dione] | – | – | 1000
7 | O=C1NC(=O)C(CC#Cc2ccc(Cl)cc2)(S(=O)(=O)c2ccc(F)cc2)S1 (stereo not drawn) [Example 243, 5-[3-(4-Chloro-phenyl)-prop-2-ynyl]-5-(4-fluoro-benzenesulfonyl)-thiazolidine-2,4-dione] | – | – | 300
8 | O=C1NC(=O)C(CC#Cc2ccc(Cl)cc2)(S(=O)(=O)c2ccc(Cl)cc2)S1 (stereo not drawn) [Example 244, 5-(4-Chloro-benzenesulfonyl)-5-[3-(4-chloro-phenyl)-prop-2-ynyl]-thiazolidine-2,4-dione] | – | – | 100
9 | O=C1NC(=O)C(CC#Cc2ccc(Cl)cc2)(S(=O)(=O)c2ccc(Br)cc2)S1 (stereo not drawn) [Example 245, 5-(4-Bromo-benzenesulfonyl)-5-[3-(4-chloro-phenyl)-prop-2-ynyl]-thiazolidine-2,4-dione] | – | – | 50
10 | Cc1ccc(S(=O)(=O)C2(CC#Cc3ccc(F)cc3)SC(=O)NC2=O)cc1 (stereo not drawn) [Example 246, 5-[3-(4-Fluoro-phenyl)-prop-2-ynyl]-5-(toluene-4-sulfonyl)-thiazolidine-2,4-dione] | – | – | 300
11 | Cc1ccc(C#CCC2(S(=O)(=O)c3ccc(C)cc3)SC(=O)NC2=O)cc1 (stereo not drawn) [Example 247, 5-(Toluene-4-sulfonyl)-5-[3-(p-tolyl)-prop-2-ynyl]-thiazolidine-2,4-dione] | – | – | 300
12 | COc1ccc(S(=O)(=O)C2(CC#Cc3ccc(Cl)cc3)SC(=O)NC2=O)cc1 (stereo not drawn) [Example 249, 5-[3-(4-Chloro-phenyl)-prop-2-ynyl]-5-(4-methoxy-benzenesulfonyl)-thiazolidine-2,4-dione] | – | – | 400
13 | O=C1NC(=O)C(CC#Cc2ccccc2)(S(=O)(=O)c2ccc3ccccc3c2)S1 (stereo not drawn) [Example 250, 5-(Naphthalene-2-sulfonyl)-5-(3-phenyl-prop-2-ynyl)-thiazolidine-2,4-dione] | – | – | 1500
14 | Cc1ccc(S(=O)(=O)C2(CC#Cc3ccc(C(F)(F)F)cc3)SC(=O)NC2=O)cc1 (stereo not drawn) [Example 251, 5-(Toluene-4-sulfonyl)-5-[3-(4-trifluoromethyl-phenyl)-prop-2-ynyl]-thiazolidine-2,4-dione] | – | – | 150
15 | COc1ccc(C#CCC2(S(=O)(=O)c3ccc(C)cc3)SC(=O)NC2=O)cc1 (stereo not drawn) [Example 252, 5-[3-(4-Methoxy-phenyl)-prop-2-ynyl]-5-(toluene-4-sulfonyl)-thiazolidine-2,4-dione] | – | – | 80
16 | Cc1ccc(S(=O)(=O)C2(CC#Cc3ccc(Br)cc3)SC(=O)NC2=O)cc1 (stereo not drawn) [Example 253, 5-[3-(4-Bromo-phenyl)-prop-2-ynyl]-5-(toluene-4-sulfonyl)-thiazolidine-2,4-dione] | – | – | 90
17 | O=C1NC(=O)C(CC#Cc2ccc(C(F)(F)F)cc2)(S(=O)(=O)c2ccccc2)S1 (stereo not drawn) [Example 254, 5-Benzenesulfonyl-5-[3-(4-trifluoromethyl-phenyl)-prop-2-ynyl]-thiazolidine-2,4-dione] | – | – | 500
18 | O=C1NC(=O)C(CC#Cc2ccc(F)cc2)(S(=O)(=O)c2ccc(Cl)cc2)S1 (stereo not drawn) [Example 255, 5-(4-Chloro-benzenesulfonyl)-5-[3-(4-fluoro-phenyl)-prop-2-ynyl]-thiazolidine-2,4-dione] | – | – | 150
19 | Cc1ccc(S(=O)(=O)C2(CC#Cc3cccc(Cl)c3)SC(=O)NC2=O)cc1 (stereo not drawn) [Example 257, 5-[3-(3-Chloro-phenyl)-prop-2-ynyl]-5-(toluene-4-sulfonyl)-thiazolidine-2,4-dione] | – | – | 35
20 | O=C1NC(=O)C(CC#Cc2cc(C(F)(F)F)cc(C(F)(F)F)c2)(S(=O)(=O)c2ccccc2)S1 (stereo not drawn) [Example 259, 5-Benzenesulfonyl-5-[3-(3,5-bis-trifluoromethyl-phenyl)-prop-2-ynyl]-thiazolidine-2,4-dione] | – | – | 150
21 | Cc1ccc(S(=O)(=O)C2(CC#Cc3cc(C(F)(F)F)cc(C(F)(F)F)c3)SC(=O)NC2=O)cc1 (stereo not drawn) [Example 260, 5-[3-(3,5-bis-Trifluoromethyl-phenyl)-prop-2-ynyl]-5-(toluene-4-sulfonyl)-thiazolidine-2,4-dione] | – | – | 100
22 | Cc1ccc(S(=O)(=O)C2(CC#Cc3ccc(Cl)cc3)SC(=O)NC2=O)cc1 (stereo not drawn) [Example 262] | – | – | 70
23 | O=C1NC(=O)C(CC#Cc2ccc(C(F)(F)F)cc2)(S(=O)(=O)c2ccc(F)cc2)S1 (stereo not drawn) [Example 264, 5-(4-Fluoro-benzenesulfonyl)-5-[3-(4-trifluoromethyl-phenyl)-prop-2-ynyl)-thiazolidine-2,4-dione] | – | – | 300
24 | Cc1ccc(SC2(CC#Cc3ccc(Cl)cc3)SC(=O)NC2=O)cc1 (stereo not drawn) [Example 267, 5-[3-(4-Chloro-phenyl)-prop-2-ynyl]-5-(p-tolylsulfanyl)-thiazolidine-2,4-dione] | – | – | 5000

Continued, values first:

Row | IC50 (FPTase [1]; Table I, read-out: IC50 H-Ras*) [nM] | IC50 (FPTase [2]) [nM] | IC50 (FPTase [1]; [3]) [nM] | Compound
25 | 6 to 32 | 80 to 310 | – | 5-(4-Iodobenzenesulfonyl)-5-[5-(2-methyl-4-nitrophenyl)pent-4-ynyl]-thiazolidine-2,4-dione [Example 131]
26 | 1 to 32 | 20 to 220 | – | 5-[5-(2-Methyl-4-nitrophenyl)pent-4-ynyl]-5-[4-(pyridin-4-yloxy)-benzenesulfonyl]thiazolidine-2,4-dione [Example 128]
27 | 280 | – | – | Cc1ccc(S(=O)(=O)C2(CC#Cc3cccs3)SC(=O)NC2=O)cc1 (stereo not drawn) [Example 168, 5-(3-Thiophen-2-yl-prop-2-ynyl)-5-(toluene-4-sulfonyl)-thiazolidine-2,4-dione]
28 | – | – | 500 | O=C1NC(=O)C(CC#Cc2ccc(Cl)cc2)(S(=O)(=O)c2ccccc2)S1 (stereo not drawn) [Example 240, 5-Benzenesulfonyl-5-[3-(4-chloro-phenyl)-prop-2-ynyl]-thiazolidine-2,4-dione]
29 | – | – | 1500 | O=C1NC(=O)C(CC#Cc2ccccc2)(S(=O)(=O)c2ccccc2)S1 (stereo not drawn) [Example 241, 5-Benzenesulfonyl-5-[3-phenyl-prop-2-ynyl]-thiazolidine-2,4-dione]
30 | – | – | 450 | O=C1NC(=O)C(CC#Cc2ccccc2)(S(=O)(=O)c2ccc(Br)cc2)S1 (stereo not drawn) [Example 248, 5-(4-Bromo-benzenesulfonyl)-5-(3-phenyl-prop-2-ynyl)-thiazolidine-2,4-dione]
31 | – | – | 800 | Cc1cccc(S(=O)(=O)C2(CC#Cc3ccc(Cl)cc3)SC(=O)NC2=O)c1 (stereo not drawn) [Example 256, 5-[3-(4-Chloro-phenyl)-prop-2-ynyl]-5-(toluene-3-sulfonyl)-thiazolidine-2,4-dione]
32 | – | – | 2000 | O=C1NC(=O)C(CC#Cc2ccccc2Cl)(S(=O)(=O)c2ccccc2)S1 (stereo not drawn) [Example 258, 5-Benzenesulfonyl-5-[3-(2-chloro-phenyl)-prop-2-ynyl]-thiazolidine-2,4-dione]
33 | – | – | 300 | O=C1NC(=O)C(CC#Cc2cccc(Cl)c2)(S(=O)(=O)c2ccccc2)S1 (stereo not drawn) [Example 261, 5-Benzenesulfonyl-5-[3-(3-chloro-phenyl)-prop-2-ynyl]-thiazolidine-2,4-dione]
34 | – | – | 150 | O=C1NC(=O)C(CC#Cc2ccc(Br)cc2)(S(=O)(=O)c2ccc(Cl)cc2)S1 (stereo not drawn) [Example 263, 5-[3-(4-Bromo-phenyl)-prop-2-ynyl]-5-(4-chloro-benzenesulfonyl)-thiazolidine-2,4-dione]
35 | – | – | 1500 | O=C1NC(=O)C(CC#Cc2ccc(Cl)cc2)(S(=O)(=O)c2ccc3ccccc3n2)S1 (stereo not drawn) [Example 265, 5-[3-(4-Chloro-phenyl)-prop-2-ynyl]-5-(quinoline-2-sulfonyl)-thiazolidine-2,4-dione]
36 | – | – | 500 | O=C1NC(=O)C(CC#Cc2cc(C(F)(F)F)cc(C(F)(F)F)c2)S1 (stereo not drawn) [Example 266, 5-[3-(3,5-bis-Trifluoromethyl-phenyl)-prop-2-ynyl]-thiazolidine-2,4-dione]
